molecular target: Glutamate NMDA receptor; assay: Displacement of [3H]TCP from NMDA receptor of rat brain membranes; type: cell membranes, Membrane

| Compound | Ki [nM] |
| --- | --- |
| Oc1cccc2c1C1C3CCCC3C2N2CCCCC12 (configuration not stated) | 2.3 |
| c1ccc2c(c1)CC1CCCCN1C2 (configuration not stated) | 10000 |
| CC12c3ccccc3C(C3CCCC31)N1CCCCC12 (configuration not stated) | 46 |
| Oc1ccc2c(c1)C1C3CCCC3C2C2CCCCN21 (configuration not stated) | 23 |
| Brc1ccc2c(c1)C1C3CCCC3C2N2CCCCC12 (configuration not stated) | 41 |
| c1ccc2c(c1)C1C3CCCCC3C2N2CCCCC12 (configuration not stated) | 134 |
| c1ccc2c(c1)C1C3OCCC3C2N2CCCCC12 (configuration not stated) | 600 |
| c1ccc2c(c1)C1C3CCCC3C2N2CCCCC12 (configuration not stated) | 15 |
| Nc1ccc2c(c1)C1C3CCCC3C2N2CCCCC12 (configuration not stated) | 12 |
| Oc1ccc2c(c1)C1C3CCCC3C2N2CCCCC12 (configuration not stated) | 2.3 |
| Fc1ccc2c(c1)C1C3CCCC3C2N2CCCCC12 (configuration not stated) | 20 |
| c1ccc2c(c1)C1CCC2N2CCCCC12 (configuration not stated) | 240 |

Reference: ChEMBL document CHEMBL1128423, “Synthesis and evaluation of 6,11-ethanohexahydrobenzo[b]quinolizidines: a new class of noncompetitive N-methyl-D-aspartate antagonists” (J Med Chem, 1995)
